{"source": "patent US20100092402A1", "about": "“TREATMENT OF RESPIRATORY DISEASE” (Mucokinetica Ltd., priority 2007, published 2010)", "key": {"[1]": {"test_system": "amiloride-sensitive (sodium-dependent) component of nasal PD", "assay": "Nasal PD measurement during perfusion of human nasal epithelium", "type": "in vivo", "conditions": "for average percent of maximum PD change in response to 10^−5 M-amiloride: 4 experiments, before perfusion 94% and 80%", "procedure": "The method of measurement of nasal PD was an adaptation of that described by Standaert et al. (2004).\nRinger/HEPES buffer solution was prepared containing 148 mM-NaCl, 4.05 mM-KCl, 1.2 mM-CaCl2, 1.2 mM-MgCl2, 2.4 mM-K2HPO4, 0.4 mM-KH2PO4, 10 mM-HEPES, and adjusted to pH 7.4. Low chloride Ringer/HEPES buffer solution was prepared by replacing NaCl with 148 mM-Na gluconate in the Ringer solution components.\nAgar electrodes were prepared with 3.7% agarose dissolved in Ringer/HEPES buffer pH 7.4. The reference electrode was placed and taped in contact with a small area on the forearm where the epidermis had been removed by gentle abrasion. A dual lumen nasal recording electrode was prepared using a lm length of soft plastic tubing 2.4 mm diameter, into which 1 mm diameter polythene tubing was inserted through the wall and along the lumen for 15 cm from one end. The 2.4 mm diameter tubing was filled with 3.7% agarose dissolved in Ringer/HEPES buffer pH 7.4. The 1 mm diameter tubing was used for perfusion of buffer solutions and drugs to the nasal epithelium. The ends of the agar electrodes were each placed in contact with a calomel half-cell in 3 M-KCl solution. Voltages were measured by connecting the calomel electrodes to a high impedance voltmeter (Keithley 617 programmable electrometer). Output from the voltmeter was recorded by connection to a Biopac MP100 data aquisition unit and PC running Acqknowledge III data acquisition software.\nNasal PD was recorded via the recording electrode placed in contact with the nasal epithelium approximately 4 cm inside the nostril. The nasal epithelium was perfused according to the following schedule and nasal PD was recorded continuously.\n1. Ringer/HEPES buffer was perfused at 0.5 ml/min for 5 min, and starting baseline PD was recorded.\n2. Perfusion was then switched to low chloride Ringer/HEPES buffer pH 7.4 for 30 min during which time initial hyperpolarisation of the epithelium occurred.\n3. The nasal epithelium was then perfused with 10^−5 M-amiloride in low chloride Ringer/HEPES buffer pH 7.4 for 10 min. Measurement of the amiloride-sensitive (sodium-dependent) component of nasal PD was then made by measuring the difference between the average PD recorded over the 2 min before perfusion with amiloride and the average PD recorded in the period 4 to 6 min after perfusion with amiloride.\n4. Amiloride was washed away from the nasal epithelium by perfusion with low chloride Ringer/HEPES buffer pH 7.4 for 30 min.\n5. Steps 3 and 4 were then repeated twice more.\n6. The nasal epithelium was then perfused with 3 μM 6-amidino-2-napthyl 4-guanidinobenzoate in low chloride Ringer/HEPES buffer pH 7.4 for 60 min.\n7. Steps 3 and 4 were then repeated a further twice, followed by either a period of administration of amiloride (3 experiments), or a final repetition of both steps 3 and 4 (1 experiment).\nOver the 5 h time course of each experiment nasal PD drifted and oscillated. […] Changes in nasal PD caused by perfusion of amiloride were calculated as the difference between the mean PD recorded in the 2 min period before perfusion with amiloride and the mean PD recorded in the plateau period 4 to 6 min after start of perfusion with amiloride. Within each experiment the change in nasal PD at each period of application of amiloride was expressed as a percentage of the maximum change observed in the experiment."}, "[2]": {"test_system": "nasal epithelium", "assay": "Mucus host-defence responses during nasal perfusion", "type": "in vivo, human", "source_text": "Perfusion of the nasal epithelium with low chloride Ringer/HEPES buffer imposes a chemical gradient for chloride secretion, and therefore also provides a drive for fluid secretion.\nMucus host-defence episodes were scored 1 to 3 on the basis of the number of features and the magnitude of the responses observed. FIG. 10 reports the score of the episodes recorded, and indicates the time of their occurrence in the perfusion protocol."}, "[3]": {"test_system": "cortical collecting duct of the rabbit kidney", "conditions": "Muto et al. 1993, cited from earlier work"}, "[4]": {"test_system": "prostasin", "conditions": "rats infused i.v. for 24h; cited from earlier work"}}}
{"smiles": "N=C(N)c1ccc2cc(OC(=O)c3ccc(N=C(N)N)cc3)ccc2c1", "note": "[6-amidino-2-napthyl 4-guanidinobenzoate]", "values": [{"measurement": "time following perfusion for which amiloride-sensitive component of nasal PD was reduced", "setting": "[1]; 3.10^−6 M in low chloride Ringer/HEPES buffer pH 7.4 for 60 min", "result": "up to 80 min"}, {"measurement": "average percent of maximum PD change in response to 10^−5 M-amiloride", "setting": "[1]; 40 min after perfusion of 3.10^−6 M for 60 min", "result": 29, "unit": "%"}, {"measurement": "average percent of maximum PD change in response to 10^−5 M-amiloride", "setting": "[1]; 80 min after perfusion of 3.10^−6 M for 60 min", "result": 55, "unit": "%"}, {"measurement": "average percent of maximum PD change in response to 10^−5 M-amiloride", "setting": "[1]; immediately following 60 min perfusion of 3.10^−6 M", "result": 49, "unit": "%"}, {"measurement": "scores for episodes of mucus host-defence response (scored 1 to 3)", "setting": "[2]; perfusion of 3.10^−6 M in low chloride Ringer/HEPES buffer", "result": "Highest scores"}, {"measurement": "mucus host-defence responses", "setting": "[2]; perfusion with 3.10^−6 M in low chloride Ringer/HEPES buffer", "result": "stimulated episodes of mucus host-defence responses"}, {"measurement": "effect on the rabbit kidney model", "setting": "[3]; 10^−5 M", "result": "without effect"}, {"measurement": "change in transepithelial voltage, as share of that achievable by 5.10^−6 M amiloride", "setting": "[3]; perfused at 10^−4 M", "result": 40, "unit": "%"}, {"measurement": "onset of change in transepithelial voltage", "setting": "[3]; perfusion of 10^−4 M", "result": "≤ 30", "unit": "s"}, {"measurement": "levels of prostasin secreted in the urine", "setting": "[4]", "result": "reduced levels of prostasin"}]}
